In BindingDB's records for patent US20240226096 (Poseidon Innovation 1, 2024):

Molecular target: T1, Bromodomain-containing protein 4 [368-440] (Homo sapiens, UniProt O60885)
T1 construct: 368-440
Experiment: BET BRD Assay
Description: 3x Complete Substrate plus Inhibitor Solution in Assay Medium (Opti-MEM I Reduced Serum Medium, no phenol red, and no serum) was prepared just before measuring BRET. This solution consisted of a 1:166 dilution of NanoBRET Nano-Glo Substrate plus a 1:500 dilution of Extracellular NanoLuc Inhibitor in Assay Medium. For a 96-well plate, 30 ul of NanoBRET Nano-Glo Substrate, 10 ul of Extracellular NanoLuc Inhibitor and 4,960 ul of Assay Medium were mixed to produce 5 ml of 3x Complete Substrate plus Inhibitor Solution, followed with gently mixing by inversion 5-10 times in a conical tube. (The final concentration of Extracellular NanoLuc Inhibitor in the 3x solution was 60 uM, for a working concentration of 20 uM. Use 3x Complete Substrate plus Inhibitor Solution within 2 hours. Discard any remaining solution). […] Donor emission wavelength (e.g., 450 nm) and acceptor emission wavelength (e.g., 610 nm) were measured by using the GloMax Discover System or other NanoBRET Assay-compatible luminometer (it is recommended measuring BRET within 10 minutes after adding NanoBRET Nano-Glo Substrate plus Extracellular NanoLuc Inhibitor Solution. However, BRET can be measured for up to 2 hours, but there will be some loss of luminescence signal). […]

IC50: 10.2 nM
SMILES: Cc1cc(-c2ccc(-n3ccn(C)c3=O)c(Cl)c2)c(O)c(-c2cccc(N3CCN(C(C)(C)C)CC3)c2)n1 [US20240226096, Example I-2]
